# Measurements taken from patent US4722922A, “Tetrapeptide amides in the treatment of hypertension” (priority 1985, dated 1988).
# Where a name gives a salt, the structure may show the parent alone. Non-standard residues stand in square brackets, D forms with d. Residues, ends and D or L forms follow the SMILES beside them. No end group written: not given here. *: point of attachment. dTyr(3-tBu) = CC(C)(C)c1cc(C[C@@H](N)C(=O)O)ccc1O; Tyr(3-tBu) = CC(C)(C)c1cc(C[C@H](N)C(=O)O)ccc1O; dMet(O2) = CS(=O)(=O)CC[C@@H](N)C(=O)O; Sta = CC(C)C[C@H](N)[C@@H](O)CC(=O)O; Isovaleryl = CC(C)CC(=O)*; Ahx = NCCCCCC(=O)O
# What was measured:
# human renin = molecular target: T1, human renin (Homo sapiens, UniProt P00797); assay: Inhibition of Human Renin (angiotensin I formation, radioimmunoassay); type: biochemical; conditions: for % Inhibition: human renin test, 0.1 mGU/ml human renin, human plasma, two-hour incubation at 37° C., pH 7.5, test compound concentration not given
# T1 construct: human renin, isolated from kidneys, was obtained from the World Health Organization International Laboratory for Biological Standards; tissue World Health Organization International Laboratory for Biological Standards (National Institute for Biological Standards and Control, London, England); host or cells: human kidney
# T1 sequence (P00797 67-406): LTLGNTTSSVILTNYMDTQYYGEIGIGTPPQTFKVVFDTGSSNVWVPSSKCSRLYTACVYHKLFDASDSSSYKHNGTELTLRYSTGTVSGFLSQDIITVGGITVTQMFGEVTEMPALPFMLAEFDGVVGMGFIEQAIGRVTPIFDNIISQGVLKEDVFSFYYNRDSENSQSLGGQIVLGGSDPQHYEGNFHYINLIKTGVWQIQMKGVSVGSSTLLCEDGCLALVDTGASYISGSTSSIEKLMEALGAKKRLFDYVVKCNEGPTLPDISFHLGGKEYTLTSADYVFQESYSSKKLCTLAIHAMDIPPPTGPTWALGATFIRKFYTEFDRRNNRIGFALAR
# Method: The renin inhibition activity of the compounds of this invention illustrated in the examples was tested by the following method.
# Inhibition of Human Renin
# International reference standard human renin, isolated from kidneys, was obtained from the World Health Organization International Laboratory for Biological Standards (National Institute for Biological Standards and Control, London, England). Renin activity is defined in "Goldblatt units" (GU), the quantity that, when injected directly into the blood stream of an unanesthetized dog, raises the direct mean femoral artery blood pressure by 30 mm Hg in about two minutes. E. Haas, L. Lewis, P. Scipione, and T. J. Koshy, Hypertension, 1, 112-117 (1979). Human angiotensinogen was used as an unisolated component of human blood plasma. The enzyme inhibition assay, see K. Poulsen, J. Burton, and E. Haber, Biochemistry, 12, 3877-3882 (1973), involved a two-hour incubation at 37° C. of the following final concentrations of reagents (0.25 ml total volume): 0.1 mGU/ml human renin; 0.05 ml human plasma; 6 mM disodium EDTA; 2.4 mM phenylmethylsulfonyl fluoride and 1.5 mM 8-hydroxyquinoline (angiotensinase inhibitors); 0.4 mg/ml bovine serum albumin; and 0.024 neomycin sulfate in 100 mM Tris-acetate buffer (pH 7.5). The enzymatic reaction was terminated by boiling the mixture for ten minutes. The quantity of angiotensin I formed was determined by radioimmunoassay, using the general method used in the angiotensin I radioimmunoassay kit of New England Nuclear.
# [1] = tested on: renal-ligated hypertensive rat; assay: Renal-ligated Hypertensive Rat Assay; type: in vivo, Sprague Dawley rats; conditions: renal-ligated rats
# Method: Renal-ligated Hypertensive Rat Assay
# Male Sprague Dawley rats aged 11 to 15 weeks old were used in this test. […] Test compounds were administered intra-arterially at a dose of 10 mg per kg of body weight, and blood pressure changes were monitored directly at 5, 10, and 15 minutes after injection.
Compound,% Inhibition (human renin) [%],also measured
"2,4-dimethyl-3-hydroxyphenylalanyl-D-methionylglycyl-N-(6-methoxy-6-oxohexyl)-L-phenylalaninamide monohydrochloride hemihydrate [Example 77]",73,
"COC(=O)CCCCCNC(=O)[C@H](Cc1ccccc1)NC(=O)CNC(=O)[C@@H](CCSC)NC(=O)[C@@H](N)Cc1ccc(OC(=O)OCC(C)C)c(C(C)(C)C)c1.Cl (racemic) [Example 69, O-(2-methylpropoxycarbonyl)-3-t-butyl-tyrosyl-D-methionylglycyl-N-(6-methoxy-6-oxohexyl)-L-phenylalaninamide monohydrochloride]",43,
"COC(=O)CCCCCNC(=O)[C@H](Cc1ccccc1)NC(=O)CNC(=O)[C@@H](CCS(C)(=O)=O)NC(=O)[C@@H](N)Cc1ccc(O)c(C(C)(C)C)c1 [Example 73, 3-t-butyl-L-tyrosyl-[4-(methylsulfonyl)-D-2-aminobutanoyl]glycyl-N-(6-methoxy-6-oxohexyl)-L-phenylalaninamide monohydrochloride hemihydrate] (H-[Tyr(3-tBu)][dMet(O2)]GF[Ahx]-OMe)",21,
"COC(=O)CCCCCNC(=O)[C@H](Cc1ccccc1)NC(=O)CNC(=O)[C@@H](CCS(C)(=O)=O)NC(=O)[C@H](N)Cc1ccc(O)c(C(C)(C)C)c1 [Example 74, 3-t-butyl-D-tyrosyl-[4-(methylsulfonyl)-D-2-aminobutanoyl]glycyl-N-(6-methoxy-6-oxohexyl)-L-phenylalaninamide monohydrochloride hemihydrate] (H-[dTyr(3-tBu)][dMet(O2)]GF[Ahx]-OMe)",28,
CC(C)CC(=O)N[C@H](C(=O)N[C@H](C(=O)N[C@@H](CC(C)C)[C@@H](O)CC(=O)N[C@@H](C)C(=O)N[C@@H](CC(C)C)[C@@H](O)CC(=O)O)C(C)C)C(C)C [Pepstatin] (Isovaleryl-VV[Sta]A[Sta]-OH),,"plasma renin activity ([1]; same test conditions): significantly reduced; mean arterial blood pressure ([1]; test compounds given intra-arterially, pressure read at 5, 10 and 15 minutes after injection): significantly reduced"
"O-(2-methylpropoxycarbonyl)-2,3,6-trimethyltyrosyl-[4-(methylsulfinyl)-D-2- aminobutanoyl]glycyl-N-(6-methoxy-6-oxohexyl)-L-phenylalaninamide monohydrochloride sesquihydrate [Example 58]",26,
O-(2-methylpropoxycarbonyl)-2-methyltyrosyl-D-methionylglycyl-N-(6-methoxy- 6-oxohexyl)-L-phenylalaninamide monohydrochloride hemihydrate [Example 63],23,
O-(2-methylpropoxycarbonyl)-2-methyltyrosyl-[4-(methylsulfinyl)-D-2-aminobutanoyl]-glycyl-N-(6-methoxy-6-oxohexyl)-L-phenylalaninamide monohydrochloride hemihydrate [Example 64],22,
O-(2-methylpropoxycarbonyl)-3-t-butyltyrosyl-[4-(methylsulfinyl)-D-2-aminobutanoyl]glycyl-N-(6-methoxy-6-oxohexyl)-L-phenylalaninamide monohydrochloride hemihydrate [Example 70],25,
"PHPFHLFVY [Pro-[Phe^6]octapeptide, prolylhistidylprolylphenylalanylhistidylleucylphenylalanylvalyltyrosine, reference compound]",,activity in the human renin inhibition assay (human renin; stated in words): active
